# Measured values taken from PubChem BioAssay AID743111 (Vanderbilt Specialized Chemistry Center, 2013).
# The source made the active and inactive calls.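 How the source made its calls: active means response above 60% of the acetylcholine maximum at the M5 muscarinic receptor, read as positive allosteric modulation; inactive means the rest.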
# Biological target: Muscarinic acetylcholine receptor M5 (Rattus norvegicus) (UniProt P08911)
# Test: rat M5 receptor positive allosteric modulators, dose response, selectivity assay for M5 PAM project, cell-based, rat ortholog, CHO-K1, calcium flux, ACh EC20 (AID 743111)
# Settings: CHO-K1 rat M5, Fluo-4 calcium flux; for % ACh max response: at 30 µM (top of the series)
# Muscarinic acetylcholine receptor M5 (Rattus norvegicus), sequence (P08911 whole entry, looked up): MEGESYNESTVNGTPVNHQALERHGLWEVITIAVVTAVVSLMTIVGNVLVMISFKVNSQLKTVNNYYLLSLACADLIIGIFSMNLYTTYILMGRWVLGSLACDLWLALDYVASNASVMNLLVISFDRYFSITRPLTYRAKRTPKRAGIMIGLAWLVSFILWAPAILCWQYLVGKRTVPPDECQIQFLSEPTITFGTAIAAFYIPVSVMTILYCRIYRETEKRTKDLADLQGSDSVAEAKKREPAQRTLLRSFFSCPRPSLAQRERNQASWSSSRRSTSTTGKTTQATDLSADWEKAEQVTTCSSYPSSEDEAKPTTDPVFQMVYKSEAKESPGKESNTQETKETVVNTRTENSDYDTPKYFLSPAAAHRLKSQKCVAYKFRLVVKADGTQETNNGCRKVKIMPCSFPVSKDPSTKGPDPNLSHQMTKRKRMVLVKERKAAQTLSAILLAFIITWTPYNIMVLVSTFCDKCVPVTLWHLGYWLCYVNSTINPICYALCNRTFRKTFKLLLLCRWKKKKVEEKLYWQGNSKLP
SMILES,EC50 [nM],% ACh max response
CCN(C(=O)C1CCN(S(=O)(=O)c2ccc(OC)cc2)CC1)[C@H](C)c1ccccc1,1570,–
CCN(Cc1ccccc1)C(=O)C1CCN(S(=O)(=O)c2ccc(OC)cc2)CC1,–,inactive
CCN(Cc1ccccc1)C(=O)C1CCN(S(=O)(=O)c2ccc3c(c2)OCCO3)CC1,–,inactive
CCN(C(=O)C1CCN(S(=O)(=O)c2ccc3[nH]ncc3c2)CC1)[C@H](C)c1ccccc1,640,–
CCN(Cc1ccccc1)C(=O)C1CCN(S(=O)(=O)c2ccc3cn[nH]c3c2)CC1,1950,–

# The remaining compounds from weak to strong by EC50, led by results:
EC50 [nM],% ACh max response,SMILES
1450,–,CCN(Cc1ccccc1)C(=O)C1CCN(S(=O)(=O)c2ccc3[nH]ncc3c2)CC1
1200,–,CCN(Cc1ccccc1C(F)(F)F)C(=O)C1CCN(S(=O)(=O)c2ccc3cn[nH]c3c2)CC1
1200,–,CCN(C(=O)C1CCN(S(=O)(=O)c2ccc(-n3cccn3)cc2)CC1)[C@H](C)c1ccccc1
860,–,CCN(C(=O)C1CCN(S(=O)(=O)c2ccc3cn[nH]c3c2)CC1)[C@H](C)c1ccccc1
710,–,CCN(Cc1ccccc1C(F)(F)F)C(=O)C1(F)CCN(S(=O)(=O)c2ccc3[nH]ncc3c2)CC1
540,–,CCN(Cc1ccccc1C(F)(F)F)C(=O)C1CCN(S(=O)(=O)c2ccc3[nH]ncc3c2)CC1
320,–,CCCN(Cc1ccccc1C(F)(F)F)C(=O)C1CCN(S(=O)(=O)c2ccc3[nH]ncc3c2)CC1
300,–,CCN(Cc1ccccc1Cl)C(=O)C1CCN(S(=O)(=O)c2ccc3[nH]ncc3c2)CC1
